Data reported in patent US7396655B2, “Method for enhancing activity of luciferase with fluorescence activity” (Chisso Corporation, priority 2005, dated 2008).
Structures can show the parent of a compound that is named as a salt. Where two headings read alike, the source gives them in different places.

Legend:
BFP-aq [1] = biological target: T1, BFP-aq (Aequorea victoria, UniProt P07164); experiment: biochemical; assay type: biochemical; parameters: The recombinant apoaequorins encoded by piP-HE is composed of 191 amino acids, whose N-terminus starts from Ala-Asn-Ser-; made in house; host or cells: E. coli strain WA802; conditions: for Luminescence activity (%) Imax: 50 mM Tris-HCl pH 8.0, 25° C., coelenterazine 1 μg, no compound = 100%
Protocol: (§1) Solutions of 50 mM Tris-HCl (pH 8.0), each containing various commercial organic compounds shown in Table 3, were prepared and pre-warmed at 25° C. The substrate coelenterazine (1 μg) was added to the solutions (200 μl) containing each of these compounds.

[2] = biological target: T2, BFP-aq, luciferase with fluorescence activity derived from aequorin (recombinant apoaequorin, SEQ ID NO: 1 with N-terminal Val replaced by Ala-Asn-Ser; complex with coelenteramide and calcium ions) (Aequorea victoria, UniProt P02592); experiment: Enhancing effect of organic compounds on BFP-aq luminescence with coelenterazine as substrate (Table 4); assay type: biochemical; conditions: pH 8.0, 25° C., no addition = 100%; for activity at 30000 µM: 30 mM compound; for activity at 150000 µM: 150 mM compound; for activity at 300000 µM: 300 mM compound; for activity at 3 M: 3000 mM compound
T2 construct: The recombinant apoaequorins encoded by piP-HE is composed of 191 amino acids, whose N-terminus starts from Ala-Asn-Ser-; made in house; host or cells: E. coli strain WA802 (expression vector piP-HE)
T2 sequence (P02592 with tags, fused parts or gaps): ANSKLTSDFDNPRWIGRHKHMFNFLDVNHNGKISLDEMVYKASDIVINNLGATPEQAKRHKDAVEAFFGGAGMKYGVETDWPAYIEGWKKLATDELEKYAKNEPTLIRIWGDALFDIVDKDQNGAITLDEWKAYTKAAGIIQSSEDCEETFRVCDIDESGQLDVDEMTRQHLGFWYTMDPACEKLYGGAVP
Source text: To obtain recombinant apoaequorins, the apoaequorin gene expression vector piP-HE (Japanese Laid-Open Application No. 1989-132397) constructed from pAQ440 harboring the apoaequorin gene (Japanese Laid-Open Application No. 1986-135586) was used. The recombinant apoaequorins encoded by piP-HE is composed of 191 amino acids, whose N-terminus starts from Ala-Asn-Ser-(Val of the N-terminus of SEQ ID NO: 1 in the sequence listing was replaced by Ala-Asn-Ser-).
In a VIVASPIN 2 column, the concentrated aequorin solution was overlaid with 0.9 ml of 50 mM Tris-HCl (pH 7.6) containing 5 mM calcium chloride (Wako Pure Chemicals Industries, Ltd.) and 2 mM dithiothreitol (Wako Pure Chemicals Industries, Ltd.) to trigger continuous light emission and the column was allowed to stand at […] for 24 hours or longer. […] Further, 2 ml of 50 mM Tris-HCI (pH 7.6) containing 5 mM calcium chloride (Wako Pure Chemicals Industries, Ltd.) and 2 mM dithiothreitol (Wako Pure Chemicals Industries, Ltd.) was loaded onto the VIVASPIN 2 column and the column was centrifuged under the identical conditions and then washed.
as §1

[3] = cited from earlier work
BFP-aq [4] = biological target: T1, BFP-aq; assay type: biochemical; parameters: The recombinant apoaequorins encoded by piP-HE is composed of 191 amino acids, whose N-terminus starts from Ala-Asn-Ser-; made in house; host or cells: E. coli strain WA802; conditions: for Relative luminescence activity Imax (%) / Relative luminescence activity Initial velocity (%): substrate 1 μg, BFP-aq 1.2 μg, pH 8.0, coelenterazine without imidazole = 100%
Protocol: 200 μl of this solution was placed in five vessels, to each of which 1 μg of the substrate coelenterazine (CTZ) and its four analogs: h-CTZ, cp-CTZ, hcp-CTZ, f-CTZ were added.

[5] = substrate: Oc1ccc(Cc2nc3c(Cc4ccccc4)nc(-c4ccc(O)cc4)cn3c2O)cc1; experiment: Light-emitting reaction rate of BFP-aq, Lineweaver-Burk plot (Table 6); assay type: biochemical, Aequorea victoria; conditions: other: coelenterazine, pH 8.0, 25° C.
[6] = pH 8, read-out: Luminescence activity (%) Imax
[7] = pH 8, read-out: Luminescence activity (%) Initial velocity
[8] = read-out: Luminescence activity, Imax
[9] = read-out: Luminescence activity, initial velocity

For `Cc1ncc[nH]1` [2-Methylimidazole], the activity at 30000 µM (BFP-aq [1]; [6]) was 63%, the activity at 150000 µM (BFP-aq [1]; [6]) was 16% and the activity at 30000 µM (BFP-aq [1]; [7]) was 83%. It also gave an activity at 150000 µM (BFP-aq [1]; [7]) of 21%.

For `CC(N)=O` [Acetamide/hydrochloride], the activity at 30000 µM [2, 8] was 73%, the activity at 30000 µM [2, 9] was 132% and the activity at 150000 µM [2, 8] was 31%. The activity at 150000 µM [2, 9] was 44%, the activity at 300000 µM [2, 8] was 55% and the activity at 300000 µM [2, 9] was 95%. The “Luminescence activity (%) Imax” value (BFP-aq [1]; compound 30 mM) was 73%, the “Luminescence activity (%) Imax” value (BFP-aq [1]; compound 150 mM) was 31% and the “Luminescence activity (%) Imax” value (BFP-aq [1]; compound 300 mM) was 55%.

In the case of `NCCCC[C@H](N)C(=O)O` [L-Lysine], the activity at 30000 µM (BFP-aq [1]; [6]) is reported as 60%, the activity at 150000 µM (BFP-aq [1]; [6]) is reported as 1% and the activity at 30000 µM (BFP-aq [1]; [7]) is reported as 66%. The activity at 150000 µM (BFP-aq [1]; [7]) was 10%.

In the case of `O=C(O)/C=C/c1c[nH]cn1` [Urocanic acid], the activity at 30000 µM (BFP-aq [1]; [6]) is listed as 44%, the activity at 30000 µM (BFP-aq [1]; [7]) is listed as 31% and the pKa [3] is listed as 5.8.

In the case of `N=C(N)NCCC[C@H](N)C(=O)O` [L-Arginine], the activity at 30000 µM (BFP-aq [1]; [6]) is reported as 62%, the activity at 150000 µM (BFP-aq [1]; [6]) is reported as 1% and the activity at 30000 µM (BFP-aq [1]; [7]) is reported as 73%. The activity at 150000 µM (BFP-aq [1]; [7]) was 4%.

For `O=c1c(Cc2ccccc2)nc2c(CC3CCCC3)[nH]c(-c3ccc(O)cc3)cn1-2` [hcp-Coelenterazine], the “Suitability as substrate in the BFP-aq light-emitting reaction system” value (from here on “Suitability as substrate”) (BFP-aq [4]) was “served as effective substrates”, the “Imax relative to coelenterazine without imidazole” value (BFP-aq [4]; with 150 mM imidazole) was 4 fold and the “Velocity of light-emitting reaction relative to coelenterazine without imidazole” value (BFP-aq [4]; with 150 mM imidazole) was 25 fold.

Work on `NCCc1c[nH]cn1` [Histamine] yielded an activity at 30000 µM (BFP-aq [1]; [6]) of 69%, an activity at 150000 µM (BFP-aq [1]; [6]) of 22% and an activity at 30000 µM (BFP-aq [1]; [7]) of 92%. The activity at 150000 µM (BFP-aq [1]; [7]) was 26% and the pKa [3] was 8.0.

For `NC(N)=O` [Urea], the activity at 30000 µM [2, 8] was 84%, the activity at 30000 µM [2, 9] was 113% and the activity at 150000 µM [2, 8] was 89%. For the same molecule, the activity at 150000 µM [2, 9] was 104%, the activity at 3 M [2, 8] was 29% and the activity at 3 M [2, 9] was 57%. For the same molecule, the “Luminescence activity (%) Imax” value (BFP-aq [1]) was 29%, the “Luminescence activity (%) Imax” value (BFP-aq [1]; compound 30 mM) was 84% and the “Luminescence activity (%) Imax” value (BFP-aq [1]; compound 150 mM) was 89%.

With `N[C@@H](Cc1c[nH]cn1)C(=O)O` [L-Histidine] the activity at 30000 µM (BFP-aq [1]; [6]) was 37%, the activity at 150000 µM (BFP-aq [1]; [6]) was 5% and the activity at 30000 µM (BFP-aq [1]; [7]) was 82%. For the same molecule, the activity at 150000 µM (BFP-aq [1]; [7]) was 27%.

In the case of `O=c1c(Cc2ccc(F)cc2)nc2c(Cc3ccccc3)[nH]c(-c3ccc(O)cc3)cn1-2` [f-Coelenterazine], the “Suitability as substrate” value (BFP-aq [4]) is reported as “served as effective substrates”.

In the case of `O=c1c(Cc2ccccc2)nc2c(Cc3ccccc3)[nH]c(-c3ccc(O)cc3)cn1-2` [h-Coelenterazine], the “Suitability as substrate” value (BFP-aq [4]) is reported as “served as effective substrates”.

`Cc1c[nH]cn1` [4-Methylimidazole] gave an activity at 30000 µM (BFP-aq [1]; [6]) of 88%, an activity at 150000 µM (BFP-aq [1]; [6]) of 78% and an activity at 30000 µM (BFP-aq [1]; [7]) of 92%. The activity at 150000 µM (BFP-aq [1]; [7]) was 95% and the pKa [3] was 7.5.

`N=C(N)N` [Guanidine/hydrochloride] gave an activity at 30000 µM [2, 8] of 92%, an activity at 30000 µM [2, 9] of 130% and an activity at 150000 µM [2, 8] of 109%. It also gave an activity at 150000 µM [2, 9] of 226%, an activity at 300000 µM [2, 8] of 65% and an activity at 300000 µM [2, 9] of 118%. For the same molecule, the “Luminescence activity (%) Imax” value (BFP-aq [1]; compound 30 mM) was 92%, the “Luminescence activity (%) Imax” value (BFP-aq [1]; compound 150 mM) was 109% and the “Luminescence activity (%) Imax” value (BFP-aq [1]; compound 300 mM) was 65%.

With `O=c1c(Cc2ccc(O)cc2)nc2c(CC3CCCC3)[nH]c(-c3ccc(O)cc3)cn1-2` [cp-Coelenterazine] the “Suitability as substrate” value (BFP-aq [4]) was “served as effective substrates”, the “Relative luminescence activity Imax (%)” value (BFP-aq [4]; with 150 mM imidazole) was 138% and the “Relative luminescence activity Initial velocity (%)” value (BFP-aq [4]; with 150 mM imidazole) was 535%. The “Relative luminescence activity Imax (%)” value (BFP-aq [4]; without imidazole) was 54% and the “Relative luminescence activity Initial velocity (%)” value (BFP-aq [4]; without imidazole) was 152%.

Work on `NC(=O)c1nc[nH]c1N` [5-Amino-imidazole-4-carboxamide/hydrochloride] yielded an activity at 30000 µM [2, 8] of 64%, an activity at 30000 µM [2, 9] of 48% and an activity at 150000 µM [2, 8] of 0%. For the same molecule, the activity at 150000 µM [2, 9] was 2%, the “Luminescence activity (%) Imax” value (BFP-aq [1]; compound 30 mM) was 64% and the “Luminescence activity (%) Imax” value (BFP-aq [1]; compound 150 mM) was 0%.

In the case of `NCC(=O)O` [L-Glycine], the activity at 30000 µM [2, 8] is reported as 87%, the activity at 30000 µM [2, 9] is reported as 104% and the activity at 150000 µM [2, 8] is reported as 83%. For the same molecule, the activity at 150000 µM [2, 9] was 78%, the “Luminescence activity (%) Imax” value (BFP-aq [1]; compound 30 mM) was 87% and the “Luminescence activity (%) Imax” value (BFP-aq [1]; compound 150 mM) was 83%. For the same molecule, the pKa [3] was 6.0.

`CCN(CC)CC` [Triethylamine] gave an activity at 30000 µM (BFP-aq [1]; [6]) of 68%, an activity at 150000 µM (BFP-aq [1]; [6]) of 8% and an activity at 30000 µM (BFP-aq [1]; [7]) of 68%. It also gave an activity at 150000 µM (BFP-aq [1]; [7]) of 12%.

With `C[C@H](N)C(=O)O` [L-Alanine] the activity at 30000 µM (BFP-aq [1]; [6]) was 88%, the activity at 150000 µM (BFP-aq [1]; [6]) was 77% and the activity at 30000 µM (BFP-aq [1]; [7]) was 82%. The activity at 150000 µM (BFP-aq [1]; [7]) was 59%.

B1: BFP-aq, luciferase with fluorescence activity derived from aequorin (recombinant apoaequorin, SEQ ID NO: 1 with N-terminal Val replaced by Ala-Asn-Ser; complex … (protein)
chain: MTSKQYSVKLTSDFDNPRWIGRHKHMFNFLDVNHNGKISLDEMVYKASDIVINNLGATPEQAKRHKDAVEAFFGGAGMKYGVETDWPAYIEGWKKLATDELEKYAKNEPTLIRIWGDALFDIVDKDQNGAITLDEWKAYTKAAGIIQSSEDCEETFRVCDIDESGQLDVDEMTRQHLGFWYTMDPACEKLYGGAVP
notes: The recombinant apoaequorins encoded by piP-HE is composed of 191 amino acids, whose N-terminus starts from Ala-Asn-Ser-; made in house; host or cells: E. coli strain WA802 (expression vector piP-HE)
B1 showed a Km ([5]; with 150 mM imidazole) of 9.2 μM μM and a Km ([5]; without imidazole) of 9.6 μM μM.
